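1) Cells in 96-well plates. 2) Compound, 48 h, 5 concentrations. 3) Linear interpolation between surrounding doses. 4) Unreached endpoint = highest concentration. TGI: total growth inhibition.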
Assays:
Assay in all cases: growth of human tumour cells (NCI), 48 h
[1] = tested on: MALME-3M melanoma
[2] = tested on: SNB-75 CNS
[3] = tested on: HCT-116 colon
[4] = tested on: CCRF-CEM leukemia
[5] = tested on: MDA-MB-231 breast
[6] = tested on: NCI-H226 lung
[7] = tested on: OVCAR-4 ovarian
[8] = tested on: NCI-H23 lung
[9] = tested on: SF-295 CNS
[10] = tested on: PC-3 prostate
[11] = tested on: MDA-N
[12] = tested on: 786-0 renal
[13] = tested on: OVCAR-5 ovarian
[14] = tested on: MOLT-4 leukemia
[15] = tested on: NCI/ADR-RES ovarian
[16] = tested on: A549 NSCLC
[17] = tested on: OVCAR-3 ovarian
[18] = tested on: COLO 205 colon
[19] = tested on: HL-60(TB) leukemia
[20] = tested on: M14 melanoma
[21] = tested on: SK-OV-3 ovarian
[22] = tested on: U251 CNS
[23] = tested on: MCF7 breast
[24] = tested on: NCI-H522 lung
[25] = tested on: SF-268 CNS
[26] = tested on: UACC-257 melanoma
[27] = tested on: SN12C renal
[28] = tested on: HCT-15 colon
[29] = tested on: SW-620 colon
[30] = tested on: SF-539 CNS
[31] = tested on: EKVX NSCLC
[32] = tested on: KM12 colon
[33] = tested on: BT-549 breast
[34] = tested on: UO-31 renal
[35] = tested on: SK-MEL-28 melanoma
[36] = tested on: RXF 393 renal
[37] = tested on: ACHN renal
[38] = tested on: SK-MEL-5 melanoma
[39] = tested on: OVCAR-8 ovarian
[40] = tested on: SNB-19 CNS
[41] = tested on: RPMI-8226 leukemia
[42] = tested on: K-562 leukemia
[43] = tested on: IGROV1 ovarian
[44] = tested on: HOP-62 NSCLC
[45] = tested on: HOP-92 NSCLC
[46] = tested on: DU-145 prostate
[47] = tested on: TK-10 renal
[48] = tested on: HCC-2998 colon
[49] = tested on: HS 578T breast
[50] = tested on: CAKI-1 renal
[51] = tested on: MDA-MB-435
[52] = tested on: NCI-H460 lung
[53] = tested on: T-47D breast
[54] = tested on: SK-MEL-2 melanoma
[55] = tested on: SR leukemia
[56] = tested on: UACC-62 melanoma
[57] = tested on: LOX IMVI melanoma
[58] = tested on: HT29 colon
[59] = tested on: A498 renal
[60] = tested on: M19-MEL melanoma
[61] = tested on: SNB-78 CNS
[62] = tested on: LXFL 529 NSCLC
[63] = tested on: DMS 114 small cell lung
[64] = tested on: DLD-1 colon

SMILES: OC1c2c(ccc3c2CCC3)CC12Cc1ccccc1C2 (stereo not drawn)
- TGI [1]: 25.2 µM
- TGI [2]: 35.6 µM
- TGI [3]: 29.7 µM
- TGI [4]: 83.1 µM
- TGI [5]: 29.4 µM
- TGI [6]: 26.6 µM
- TGI [7]: 38.3 µM
- TGI [8]: 30.9 µM
- TGI [9]: 31.9 µM
- TGI [10]: 30.3 µM
- TGI [11]: 28.8 µM
- TGI [12]: 30.9 µM
- TGI [13]: 31.3 µM
- TGI [14]: > 100 µM
- TGI [15]: 35.4 µM
- TGI [16]: 34.5 µM
- TGI [17]: 26.5 µM
- TGI [18]: 31.9 µM
- TGI [19]: 44.7 µM
- TGI [20]: 28.8 µM
- TGI [21]: 32.9 µM
- TGI [22]: 29.7 µM
- TGI [23]: 32.8 µM
- TGI [24]: 30.3 µM
- TGI [25]: 29.4 µM
- TGI [26]: 27.4 µM
- TGI [27]: 28.8 µM
- TGI [28]: 30.2 µM
- TGI [29]: 32.8 µM
- TGI [30]: 35.8 µM
- TGI [31]: 31.4 µM
- TGI [32]: 29.7 µM
- TGI [33]: 31.6 µM
- TGI [34]: 27.4 µM
- TGI [35]: 30.5 µM
- TGI [36]: 27.2 µM
- TGI [37]: 32.7 µM
- TGI [38]: 29.3 µM
- TGI [39]: 33.7 µM
- TGI [40]: 32.9 µM
- TGI [41]: 50.8 µM
- TGI [42]: 54.9 µM
- TGI [43]: 47.5 µM
- TGI [44]: 30.1 µM
- TGI [45]: 25.8 µM
- TGI [46]: 31.2 µM
- TGI [47]: 28 µM
- TGI [48]: 27.5 µM
- TGI [49]: 35.5 µM
- TGI [50]: 33.4 µM
- TGI [51]: 29.5 µM
- TGI [52]: 33 µM
- TGI [53]: 53.5 µM
- TGI [54]: 28.8 µM
- TGI [55]: 44.6 µM
- TGI [56]: 29.4 µM
- TGI [57]: 29.4 µM
- TGI [58]: 31.3 µM
- TGI [59]: 30.2 µM

SMILES: CC(C)(c1cn(Cc2ccccc2)c2ccccc12)c1cn(Cc2ccccc2)c2ccccc12
- TGI [2]: 99.6 µM
- TGI [3]: > 100 µM
- TGI [4]: > 100 µM
- TGI [6]: > 100 µM
- TGI [7]: > 100 µM
- TGI [8]: > 100 µM
- TGI [9]: > 100 µM
- TGI [12]: > 100 µM
- TGI [13]: > 100 µM
- TGI [14]: > 100 µM
- TGI [16]: > 100 µM
- TGI [17]: > 100 µM
- TGI [18]: > 100 µM
- TGI [19]: > 100 µM
- TGI [20]: > 100 µM
- TGI [21]: > 100 µM
- TGI [22]: > 100 µM
- TGI [24]: > 100 µM
- TGI [25]: > 100 µM
- TGI [60]: > 100 µM
- TGI [27]: 5.07 µM
- TGI [28]: > 100 µM
- TGI [29]: > 100 µM
- TGI [30]: > 100 µM
- TGI [31]: > 100 µM
- TGI [32]: > 100 µM
- TGI [61]: > 100 µM
- TGI [37]: > 100 µM
- TGI [38]: > 100 µM
- TGI [39]: > 100 µM
- TGI [41]: > 100 µM
- TGI [42]: > 100 µM
- TGI [43]: > 100 µM
- TGI [44]: > 100 µM
- TGI [45]: > 100 µM
- TGI [62]: > 100 µM
- TGI [63]: > 100 µM
- TGI [50]: > 100 µM
- TGI [52]: > 100 µM
- TGI [64]: > 100 µM
- TGI [55]: > 100 µM
- TGI [56]: > 100 µM
- TGI [57]: > 100 µM
- TGI [58]: > 100 µM
